This assay deals with T1, FLuc-C-HiBiT (Photinus pyralis, UniProt P08659).
T1 construct: firefly luciferase with C-terminal HiBiT tag, E. coli expressed
The assay is described as follows: biochemical. The conditions noted are these: enzyme activity, 10 uM ATP; read-out: IC50 or SDR50 (mM) / FLuc E.

T1 sequence (P08659 whole entry, looked up): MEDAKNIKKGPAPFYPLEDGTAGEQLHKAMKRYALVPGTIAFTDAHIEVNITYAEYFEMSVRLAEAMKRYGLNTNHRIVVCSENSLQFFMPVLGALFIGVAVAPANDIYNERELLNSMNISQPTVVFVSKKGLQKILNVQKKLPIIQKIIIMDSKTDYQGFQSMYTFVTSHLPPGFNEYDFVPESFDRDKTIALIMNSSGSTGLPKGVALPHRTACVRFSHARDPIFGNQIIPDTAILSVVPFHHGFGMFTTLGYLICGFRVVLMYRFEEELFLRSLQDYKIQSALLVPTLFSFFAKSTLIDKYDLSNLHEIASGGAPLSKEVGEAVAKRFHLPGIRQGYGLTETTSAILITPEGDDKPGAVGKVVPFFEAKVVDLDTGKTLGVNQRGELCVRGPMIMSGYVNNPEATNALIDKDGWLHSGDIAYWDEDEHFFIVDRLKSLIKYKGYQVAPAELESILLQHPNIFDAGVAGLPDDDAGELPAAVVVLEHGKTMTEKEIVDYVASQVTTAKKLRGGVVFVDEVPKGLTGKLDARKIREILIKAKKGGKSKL

For the compound `Cc1ccc(-c2cc(C(=O)O)n(C)c2)cc1` [NCGC00432669-01], the IC50 turned out to be 0.00989 mM.

On to `CCn1cc(-c2ccc(OC)cc2)cc1C(=O)O` [NCGC00432677-01], for which the IC50 worked out at 0.014 mM.

Take `O=C(O)c1ccc(-c2ccc(N3CCCCCC3)nc2)cc1` [NCGC00432679-01]: the IC50 worked out at 0.00248 mM.

Take `O=C(O)c1ccc(-c2nnc3ccc(NC(=O)C4CCC4)cn23)cc1` [NCGC00432681-01]: the IC50 was found to be 0.0111 mM.

Regarding `CN1CCN(c2ccc(-c3cccc(N)c3)nn2)CC1` [NCGC00432705-01], the IC50 stood at 0.00624 mM.

In the case of `CCN1CCN(c2ccc(-c3cccc(N)c3)nn2)CC1` [NCGC00432707-01], the IC50 is 0.00989 mM.

`Nc1cccc(-c2ccc(N3CCCCC3)nn2)c1` [NCGC00432709-01]: the IC50 stood at 0.000556 mM.

With `Cc1ccc(N2CCN(c3nc(C(=O)O)cs3)CC2)cc1` [NCGC00432723-01], the IC50 is 0.00197 mM.

In the case of `COc1ccc(NC(=O)Nc2ccc(C)n(CC(=O)O)c2=O)cc1` [NCGC00432735-01], the IC50 turned out to be 0.00989 mM.

Turning to `COc1ccc2cc(C3CN(C(=O)c4cccc(CO)n4)CCO3)ccc2c1` (stereo not shown) [NCGC00432736-01], the IC50 is 0.0111 mM.

Consider `Cc1ccc(Cn2cc(-c3ccncc3)cc2C(=O)O)cc1` [NCGC00432741-01], for which the IC50 is over 0.03 mM.

`O=C(O)C1CCc2nc(N3CCN(C(=O)C4CCC4)CC3)sc2C1` (stereo not shown) [NCGC00432759-01]: the IC50 was found to be 0.00881 mM.

For `CCC(=O)N1CCN(c2nc3c(s2)CC(C(=O)O)CC3)CC1` (stereo not shown) [NCGC00432761-01], the IC50 came to 0.0111 mM.

With `CC1CCN(C(=O)c2cc3c(s2)CCC(C(=O)O)C3)CC1` (stereo not shown) [NCGC00432771-01], the IC50 turned out to be 0.014 mM.

On to `O=C(O)CCC1CCN(c2cc(NC3CC3)ncn2)CC1` [NCGC00432803-01], for which the IC50 is 0.00313 mM.

On to `CCCNc1cc(N2CCC(CCC(=O)O)CC2)ncn1` [NCGC00432805-01], for which the IC50 was 0.00785 mM.

For `CCNc1cc(N2CCC(CCC(=O)O)CC2)ncn1` [NCGC00432807-01], the IC50 worked out at 0.00556 mM.

For `CCN(CC)c1cc(CCC(=O)O)ccn1` [NCGC00432823-01], the IC50 amounted to 0.0014 mM.

`Cc1cc(NC(=O)c2ccc(CN3CC[C@H](O)C3)cc2)ccc1F` [NCGC00432832-01]: the IC50 was 0.00197 mM.

As to `O=C(Nc1cnc(-c2ccccc2)nc1)C1CCCCC1` [NCGC00432861-01], the IC50 was determined as 0.00197 mM.

For the compound `O=C(Nc1cnc(-c2ccccc2)nc1)C1CCCC1` [NCGC00432867-01], the IC50 was 0.00248 mM.

In the case of `Cc1ccc(-c2ncc(NC(=O)c3ccccc3F)cn2)cc1` [NCGC00432887-01], the IC50 is 0.00197 mM.

Consider `CCC(=O)Nc1cnc(-c2ccc(C)cc2)nc1` [NCGC00432895-01], for which the IC50 stood at 0.00881 mM.

As for `CCCC(=O)Nc1cnc(-c2ccc(C)cc2)nc1` [NCGC00432897-01], the IC50 came out at 0.00351 mM.

Regarding `O=C(Nc1cnc(-c2ccc(Cl)cc2)nc1)C1CCC1` [NCGC00432903-01], the IC50 stood at 0.00124 mM.

Turning to `Oc1cc(-c2nc3ccccc3s2)cc2c1OCCN(Cc1ncccn1)C2` [NCGC00432964-01], the IC50 was over 0.03 mM.

Regarding `COc1cc(C)ccc1OCc1cc(C(=O)NCc2n[nH]c3c2CCC3)no1` [NCGC00433000-01], the IC50 is 0.0124 mM.

Regarding `CCN(CC1CCOCC1)C(=O)c1cccnc1SC/C=C/c1ccccc1` [NCGC00433298-01], the IC50 worked out at 0.0124 mM.

Take `CCn1ncc(NC(=O)Cn2ncc3cc(-c4ccc(N(C)C)cc4)ccc32)n1` [NCGC00433406-01]: the IC50 is 0.000785 mM.

As to `Cc1cncc(C(=O)N2CCOc3c(O)cc(-c4nc5ccccc5s4)cc3C2)c1` [NCGC00433624-01], the IC50 was over 0.03 mM.

Turning to `COC(=O)[C@@H]1C[C@H](NC(=O)c2ccc(Oc3ccccc3)cc2)CN1C` [NCGC00433761-01], the IC50 worked out at 0.0157 mM.

For the compound `O=C1C[C@H]2CC[C@@H](CN1)N2Cc1ccc(OCc2ccccc2)cc1` [NCGC00434033-01], the IC50 stood at 0.014 mM.

As to `Cc1cc(CNC(=O)C2CCCCn3nnnc32)c2[nH]c(-c3ccccc3)c(C)c2c1` (stereo not shown) [NCGC00434459-01], the IC50 was determined as 0.0111 mM.

As for `CC(C)Cc1noc(-c2ccc(N3CCC(O)CC3)nc2)n1` [NCGC00434953-01], the IC50 was 0.00556 mM.

For `COc1ccc2c(c1)C1(CCN(C(=O)Nc3ccc4c(c3)OCCO4)C1)C(=O)N2C` (stereo not shown) [NCGC00435246-01], the IC50 is 0.0111 mM.

As to `CN1CCN(C[C@@H]2CN(C(=O)CCCc3ccccc3)C[C@@H]2CO)CC1` [NCGC00435815-01], the IC50 was over 0.03 mM.

Consider `CC(C)(O)CCc1ccc(C(=O)NCCSc2ccccn2)cc1` [NCGC00435911-01], for which the IC50 stood at 0.0176 mM.

`Cc1ncc(C(=O)NCc2ccc3[nH]c(-c4ccccc4F)c(C)c3c2)c(C)n1` [NCGC00435925-01]: the IC50 was found to be 0.00785 mM.

In the case of `CCCc1ccc2oc(C(=O)NCCc3nncn3CC)c(C)c2c1` [NCGC00436423-01], the IC50 was determined as 0.0124 mM.

Take `Cc1ccc2cc(CN3CCN(CC(N)=O)CC3)c(-c3cccs3)nc2c1` [NCGC00436639-01]: the IC50 came to 0.0124 mM.

For the compound `c1ccc(CNc2cc(-c3cc(N4CCCCC4)ncn3)c3cc[nH]c3n2)nc1` [NCGC00436665-01], the IC50 worked out at 0.00989 mM.

Regarding `Cc1ncc(CC(=O)NCc2ccc3[nH]c(-c4ccccc4F)c(C)c3c2)c(=O)[nH]1` [NCGC00436691-01], the IC50 turned out to be 0.0124 mM.

For `COc1ccccc1OC1(C(=O)O)CCN(c2ncnc3[nH]cnc23)CC1` [NCGC00436727-01], the IC50 is over 0.03 mM.

With `CN(C)c1cccc(C(=O)NC2CCN(c3cc(-c4ccc(Cl)cc4)n[nH]3)CC2)c1` [NCGC00437038-01], the IC50 worked out at 0.00624 mM.

For `Cc1c(-c2ccccc2F)[nH]c2ccc(CNC(=O)CCc3cc(O)no3)cc12` [NCGC00437347-01], the IC50 stood at 0.00989 mM.

Consider `COc1ccc(C(=O)NC2CCCN(c3cc(-c4ccc(Cl)cc4)n[nH]3)C2)cc1OC` (stereo not shown) [NCGC00437414-01], for which the IC50 came to 0.00624 mM.

On to `O=C(NC1CCCN(c2cc(-c3ccc(Cl)cc3)n[nH]2)C1)c1ccc2ncccc2c1` (stereo not shown) [NCGC00437446-01], for which the IC50 came to 0.00495 mM.

With `COc1cc(C(=O)NC2CCCN(c3cc(-c4ccc(F)cc4)n[nH]3)C2)cc(OC)c1OC` (stereo not shown) [NCGC00437480-01], the IC50 was 0.0111 mM.

Turning to `COc1cccc(-c2cc(C(=O)NCc3nc(-c4ccccc4)n[nH]3)[nH]n2)c1` [NCGC00437481-01], the IC50 was 0.0111 mM.

Consider `OC1(CN2CCCCC2)CCN(c2nc3ccccc3s2)C1` (stereo not shown) [NCGC00437487-01], for which the IC50 amounted to 0.0157 mM.

Turning to `COc1ccc(C(=O)NC2CCCN(c3cc(-c4ccc(F)cc4)n[nH]3)C2)cc1OC` (stereo not shown) [NCGC00437488-01], the IC50 is 0.0111 mM.

Take `O=C(NC1CCCN(c2cc(-c3ccc(F)cc3)n[nH]2)C1)c1ccc2ncccc2c1` (stereo not shown) [NCGC00437580-01]: the IC50 stood at 0.00881 mM.

Regarding `COc1ccc(-c2cc(N3CCCC(NC(=O)c4cccs4)C3)[nH]n2)cc1` (stereo not shown) [NCGC00437586-01], the IC50 turned out to be 0.00989 mM.

Take `COc1ccc(-c2cc(N3CCCC(NC(=O)c4ccc5c(c4)OCO5)C3)[nH]n2)cc1` (stereo not shown) [NCGC00437602-01]: the IC50 was 0.0111 mM.

With `CN(C)C1CCN(c2ccc(-c3nc(CCCc4ccccc4)no3)cn2)CC1` [NCGC00437613-01], the IC50 was over 0.03 mM.

As to `COc1ccc(-c2cc(N3CCCC(NC(=O)c4cc(OC)c(OC)c(OC)c4)C3)[nH]n2)cc1` (stereo not shown) [NCGC00437614-01], the IC50 worked out at 0.00556 mM.

With `COc1ccc(-c2cc(N3CCCC(NC(=O)c4cc(OC)cc(OC)c4)C3)[nH]n2)cc1` (stereo not shown) [NCGC00437618-01], the IC50 is 0.00989 mM.

In the case of `COc1ccc(-c2cc(N3CCCC(NC(=O)c4ccc(OC)cc4OC)C3)[nH]n2)cc1` (stereo not shown) [NCGC00437622-01], the IC50 came to 0.0111 mM.

For the compound `COc1ccc(-c2cc(N3CCCC(NC(=O)c4ccc(OC)c(OC)c4)C3)[nH]n2)cc1` (stereo not shown) [NCGC00437624-01], the IC50 stood at 0.00394 mM.

`COc1ccc(-c2cc(N3CCCC(NC(=O)c4ccncc4)C3)[nH]n2)cc1` (stereo not shown) [NCGC00437632-01]: the IC50 was determined as 0.0111 mM.

For the compound `COc1ccc(-c2cc(N3CCCC(NC(=O)c4cccc(OC)c4)C3)[nH]n2)cc1` (stereo not shown) [NCGC00437636-01], the IC50 is 0.00785 mM.

With `COc1ccc(-c2cc(N3CCCC(NC(=O)c4cccc5[nH]ccc45)C3)[nH]n2)cc1` (stereo not shown) [NCGC00437654-01], the IC50 was determined as 0.014 mM.

`COc1ccc(-c2cc(N3CCCC(NC(=O)c4ccsc4)C3)[nH]n2)cc1` (stereo not shown) [NCGC00437662-01]: the IC50 amounted to 0.00624 mM.

`COc1ccc(-c2cc(N3CCCC(NC(=O)c4c[nH]c5ccccc45)C3)[nH]n2)cc1` (stereo not shown) [NCGC00437686-01]: the IC50 came to 0.0111 mM.

For `COc1ccc(-c2cc(N3CCCC(NC(=O)c4ccc5ncccc5c4)C3)[nH]n2)cc1` (stereo not shown) [NCGC00437712-01], the IC50 amounted to 0.00394 mM.

Take `COc1ccc(-c2cc(N3CCCC(NC(=O)c4ccc5[nH]ccc5c4)C3)[nH]n2)cc1` (stereo not shown) [NCGC00437714-01]: the IC50 stood at 0.00495 mM.

For `Cc1ccc2nc(C(=O)N3CCCC3c3cc(C(C)C)on3)cn2c1` (stereo not shown) [NCGC00437737-01], the IC50 is 0.0157 mM.

Take `Cc1ccc(-c2cc(N3CCC(CNC(=O)c4ccc5[nH]cnc5c4)CC3)[nH]n2)cc1` [NCGC00437766-01]: the IC50 is 0.00881 mM.

On to `CC(=O)NC1CCN(Cc2cn(-c3ccc(C)cc3)nc2-c2cccc(C)c2)C1` (stereo not shown) [NCGC00437791-01], for which the IC50 is 0.014 mM.

Turning to `CN(C)c1cccc(C(=O)NC2CCN(c3cc(-c4ccccc4)n[nH]3)C2)c1` (stereo not shown) [NCGC00437846-01], the IC50 stood at 0.007 mM.

On to `CN(C)c1cccc(C(=O)NC2CCN(c3cc(-c4ccc(Cl)cc4)n[nH]3)C2)c1` (stereo not shown) [NCGC00437918-01], for which the IC50 was determined as 0.0111 mM.

Turning to `O=C(NC1CCN(c2cc(-c3ccc(F)cc3)n[nH]2)C1)c1cc2ccccc2[nH]1` (stereo not shown) [NCGC00437958-01], the IC50 amounted to 0.00624 mM.

Regarding `Cc1cc(F)ccc1OC1(C(=O)O)CCN(c2ncnc3[nH]cnc23)CC1` [NCGC00438333-01], the IC50 is over 0.03 mM.

With `O=C(O)c1ccnc(-c2ccnc(NCCN3CCCCC3=O)n2)c1` [NCGC00438481-01], the IC50 was 0.0111 mM.

On to `CN(CCO)c1ccc(-c2nc(CCCc3ccccc3)no2)cn1` [NCGC00438483-01], for which the IC50 was determined as 0.0124 mM.

Turning to `Cc1c(-c2ccccc2F)[nH]c2ccc(CNC(=O)C3C=CCN3)cc12` (stereo not shown) [NCGC00438963-01], the IC50 is 0.0124 mM.

The values above are taken from article PMC12064818, “A general assay platform to study protein pharmacology using ligand-dependent structural dynamics” (Nature Communications, 2025).
